Source: ChEMBL document CHEMBL1133707, “Heteroarylmethoxyphenylalkoxyiminoalkylcarboxylic acids as leukotriene biosynthesis inhibitors” (J Med Chem, 2000)

Tests used:
Rattus norvegicus [1] = experiment: In vivo inhibition of ionophore induced rat pleurisy.; format: functional
Rattus norvegicus [2] = experiment: Percent inhibition was determined for in vivo ionophore induced rat pleurisy at a dose of 3 mg/kg; format: functional
[3] = target: T1, Polyunsaturated fatty acid 5-lipoxygenase (Homo sapiens) (UniProt P09917); experiment: Inhibition of Calcium Ionophore (A-23187)-stimulated LTB4 formation in Human Neutrophil assay at 100 uM.; format: functional
T1 sequence (whole entry): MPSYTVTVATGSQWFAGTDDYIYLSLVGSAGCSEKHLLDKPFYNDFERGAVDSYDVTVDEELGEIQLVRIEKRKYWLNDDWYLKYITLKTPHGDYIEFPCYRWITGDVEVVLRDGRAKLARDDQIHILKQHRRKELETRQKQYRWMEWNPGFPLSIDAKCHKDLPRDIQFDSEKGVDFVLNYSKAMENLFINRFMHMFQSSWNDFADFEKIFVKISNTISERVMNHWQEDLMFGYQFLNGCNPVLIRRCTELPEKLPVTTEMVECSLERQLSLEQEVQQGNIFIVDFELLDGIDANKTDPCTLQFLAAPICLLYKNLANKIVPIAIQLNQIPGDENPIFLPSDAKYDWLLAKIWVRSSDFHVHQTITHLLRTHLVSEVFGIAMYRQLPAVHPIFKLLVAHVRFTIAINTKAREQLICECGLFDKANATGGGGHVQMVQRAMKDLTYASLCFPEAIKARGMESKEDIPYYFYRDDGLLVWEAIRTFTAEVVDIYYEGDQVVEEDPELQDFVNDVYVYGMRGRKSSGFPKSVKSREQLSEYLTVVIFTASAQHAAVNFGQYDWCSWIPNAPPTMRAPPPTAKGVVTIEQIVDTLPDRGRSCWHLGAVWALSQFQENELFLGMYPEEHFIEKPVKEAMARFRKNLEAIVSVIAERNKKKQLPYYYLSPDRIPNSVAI

[4] = half life was determined in plasma of dog; format: ADME, organism-based, Canis lupus familiaris
[5] = half life was determined in plasma of monkey; format: ADME; conditions: simiiformes
Homo sapiens = organism: Homo sapiens; experiment: Inhibition of Calcium Ionophore (A-23187)-stimulated LTB4 formation in Human whole blood assay.; format: functional
Rattus norvegicus [6] = experiment: Effective dose was determined in in vivo which inhibits 50% of the mean value in rat anaphylaxis.; format: functional

SMILES | I (Rattus norvegicus [2]) [%] | also measured
O=C(O)/C=N/OC(c1ccc(OCc2ccc3ccccc3n2)cc1)C1CCCCC1 (stereo not given) | – | ED50 (Rattus norvegicus [1]): 2.5 mg/kg
O=C(O)/C=N/OC(c1cc2cc(OCc3ccc4ccccc4n3)ccc2o1)C1CCCCC1 (stereo not given) | 31 | –
C/C(=N\OC(c1ccc(OCc2ccc3ccccc3n2)cc1)C1CCCCCC1)C(=O)O (stereo not given) | – | ED50 (Rattus norvegicus [1]): 0.7 mg/kg
O=C(O)/C=N/OC(c1ccc(OCc2ccc3cc(F)ccc3n2)cc1)C1CCCCC1 (stereo not given) | 39 | –
O=C(O)[C@@H](c1ccc(OCc2ccc3ccccc3n2)cc1)C1CCCC1 [VELIFLAPON] | – | ED50 (Rattus norvegicus [1]): 4 mg/kg
C/C(=N\OC(c1ccc(OCc2ccc3cc(F)ccc3n2)cc1)C1CCCCC1)C(=O)O (stereo not given) | – | ED50 (Rattus norvegicus [1]): 0.4 mg/kg
CCCCC(CCCC)C(O/N=C/C(=O)O)c1ccc(OCc2ccc3ccccc3n2)cc1 (stereo not given) | 7 | –
CCCCC(O/N=C(\C)C(=O)O)c1ccc(OCc2ccc3ccccc3n2)cc1 (stereo not given) | – | inhibition [3]: 45%
O=C(O)/C(CCc1ccccc1)=N/OC(c1ccc(OCc2ccc3ccccc3n2)cc1)C1CCCCC1 (stereo not given) | 34 | –
C/C(=N\OC(CC(C)(C)c1ccccc1)c1ccc(OCc2ccc3ccccc3n2)cc1)C(=O)O (stereo not given) | – | ED50 (Rattus norvegicus [1]): 2 mg/kg
O=C(O)/C=N/OC(c1ccc(OCc2cnc3ccccc3n2)cc1)C1CCCCC1 (stereo not given) | 28 | –
O=C(O)/C(Cc1ccc(O)cc1)=N/OC(c1ccc(OCc2ccc3ccccc3n2)cc1)C1CCCCC1 (stereo not given) | 39 | –
O=C(O)/C=N/OC(c1ccc(OCc2nc3ccccc3o2)cc1)C1CCCCC1 (stereo not given) | 14 | –
CCCCCCCC(O/N=C/C(=O)O)c1ccc(OCc2ccc3ccccc3n2)cc1 (stereo not given) | 0 | inhibition [3]: 100%
O=C(O)/C=N/OC(c1ccc(OCc2nc3ccccc3s2)cc1Br)C1CCCCC1 (stereo not given) | – | ED50 (Rattus norvegicus [1]): 1 mg/kg
C/C(=N\OC(c1ccc(OCc2ccc3ccccc3n2)cc1)C1CCCCC1)C(=O)O (stereo not given) [listing 1 of 2 here] | – | inhibition [3]: 95%
C/C(=N\OC(Cc1ccccc1)c1ccc(OCc2ccc3ccccc3n2)cc1)C(=O)O (stereo not given) | 36 | –
O=C(O)/C=N/OC(c1ccc(OCc2nc3cc(F)ccc3s2)cc1)C1CCCCC1 (stereo not given) | 0 | –
O=C(O)C1CCC(=NOC(c2ccc(OCc3ccc4ccccc4n3)cc2)C2CCCCC2)CC1 (stereo not given) | 9 | –
CC(/C=C/C(=O)O)=N\OC(c1ccc(OCc2ccc3ccccc3n2)cc1)C1CCCCC1 (stereo not given) | – | ED50 (Rattus norvegicus [1]): 2 mg/kg
CCCCCCCCC(O/N=C(\C)C(=O)O)c1ccc(OCc2ccc3ccccc3n2)cc1 (stereo not given) | 27 | inhibition [3]: 92%
C/C(=N\OC(c1ccc(OCc2ccc3ccccc3n2)cc1)c1cccnc1)C(=O)O (stereo not given) | – | inhibition [3]: 20%
C/C(=N\OC(c1ccc(OCc2nc3cc(F)ccc3s2)cc1Cl)C1CCCCC1)C(=O)O (stereo not given) | 22 | –
O=C(O)/C=N/OC(c1ccc(OCc2nc3cccnc3s2)cc1)C1CCCCC1 (stereo not given) | 47 | –
C/C(CCCC(=O)O)=N\OC(c1ccc(OCc2ccc3ccccc3n2)cc1)C1CCCCC1 (stereo not given) | – | ED50 (Rattus norvegicus [1]): 3 mg/kg
C/C(=N\OC(c1ccc(OCc2ccc3ccccc3n2)cc1)C1CCCCC1)C(=O)O (stereo not given) [listing 2 of 2 here] | – | half-life [4]: 5.6 h; half-life [5]: 1.5 h; IC50 (Homo sapiens): 1800 nM; ED50 (Rattus norvegicus [1]): 0.5 mg/kg; ED50 (Rattus norvegicus [6]): 1.2 mg/kg

SMILES | I (Rattus norvegicus [2]) [%] | also measured
Cc1nc(COc2ccc(C(O/N=C/C(=O)O)C3CCCCC3)cc2)cs1 (stereo not given) | 4 | –
COc1ccc(C(O/N=C(\C)C(=O)O)c2ccc(OCc3ccc4ccccc4n3)cc2)cc1 (stereo not given) | 20 | inhibition [3]: 58%
CCCCC(CCCC)C(O/N=C(\C)C(=O)O)c1ccc(OCc2ccc3ccccc3n2)cc1 (stereo not given) | 40 | –
Cc1cc(C(O/N=C/C(=O)O)C2CCCCC2)ccc1OCc1ccc2ccccc2n1 (stereo not given) | 15 | –
O=C(O)/C=N/OC(c1ccc(OCc2ccccn2)cc1)C1CCCCC1 (stereo not given) | 3 | –
O=C(O)/C=N/OC(c1ccc(OCc2nc3ccccc3s2)cc1Cl)C1CCCCC1 (stereo not given) | 84 | –
O=C(O)/C=C/c1ccc(/C=N/OC(c2ccc(OCc3ccc4ccccc4n3)cc2)C2CCCCC2)cc1 (stereo not given) | 0 | inhibition [3]: 48%
O=C(O)/C=N/OC(c1ccc(OCc2ccc3ccccc3n2)cc1)C1C2CC3CC(C2)CC1C3 (stereo not given) | – | ED50 (Rattus norvegicus [1]): 1.2 mg/kg
O=C(O)CSC(CCCc1ccc(Cl)cc1)c1ccc(OCc2ccc3ccccc3n2)cc1 (stereo not given) | – | ED50 (Rattus norvegicus [1]): 1.6 mg/kg
CC(c1cc2ccccc2s1)N(O)C(N)=O (stereo not given) [ZILEUTON] | – | ED50 (Rattus norvegicus [1]): 6 mg/kg
O=C(O)/C(=N\OC(c1ccc(OCc2ccc3ccccc3n2)cc1)C1CCCCC1)c1cccs1 (stereo not given) | 60 | –
C/C(CCC(=O)O)=N/OC(c1ccc(OCc2ccc3ccccc3n2)cc1)C1CCCCC1 (stereo not given) | 62 | –
COc1cc(OCc2ccc3ccccc3n2)ccc1C(O/N=C/C(=O)O)C1CCCCC1 (stereo not given) | 41 | –
C/C(=N\O[C@@H](c1ccc(OCc2ccc3ccccc3n2)cc1)C1CCCCC1)C(=O)O | 29 | half-life [4]: 4.5 h; half-life [5]: 3.8 h; Inhibition (Homo sapiens; Homo sapiens, Blood): 63%
C/C(=N\OC(CCCc1ccc(F)cc1)c1ccc(OCc2ccc3ccccc3n2)cc1)C(=O)O (stereo not given) | – | ED50 (Rattus norvegicus [1]): 2.6 mg/kg
C/C(=N\OC(c1ccc(OCc2ccc3ccccc3n2)cc1)c1cccs1)C(=O)O (stereo not given) | 6 | –
C/C(=N\OC(c1cc2ccc(OCc3ccc4ccccc4n3)cc2s1)C1CCCCC1)C(=O)O (stereo not given) | 80 | –
O=C(O)/C(=N/OC(c1ccc(OCc2ccc3ccccc3n2)cc1)C1CCCCC1)c1cccs1 (stereo not given) | 29 | –
O=C(O)/C=N/OC(c1ccc(OCc2ccc3ccccc3n2)c(F)c1)C1CCCCC1 (stereo not given) | – | inhibition [3]: 97%
O=C(O)/C=N/OC(c1ccc(OCc2ccc3ccccc3n2)cc1)C1CCCC1 (stereo not given) | 27 | –
O=C(O)/C(=N/OC(c1ccc(OCc2ccc3ccccc3n2)cc1)C1CCCCC1)c1ccccc1 (stereo not given) | 41 | –
O=C(O)/C=N/OC(c1ccc(OCc2nc3ccccc3s2)cc1)C1CCCCC1 (stereo not given) | – | ED50 (Rattus norvegicus [1]): 3 mg/kg
O=C(O)/C=N/OC(c1ccc(OCc2csc(-c3ccc(Cl)cc3)n2)cc1)C1CCCCC1 (stereo not given) | 30 | –
C/C(=N\OCC(c1ccc(OCc2ccc3ccccc3n2)cc1)C1CCCCC1)C(=O)O (stereo not given) | 33 | –
CCCCCCCCCCCCC(O/N=C/C(=O)O)c1ccc(OCc2ccc3ccccc3n2)cc1 (stereo not given) | – | inhibition [3]: 54%
C/C(=N\OC(c1ccc(OCc2ccc3ccccc3n2)cc1)C1C2CC3CC(C2)CC1C3)C(=O)O (stereo not given) | – | ED50 (Rattus norvegicus [1]): 0.6 mg/kg

SMILES | I (Rattus norvegicus [2]) [%] | also measured
C/C(=N\OC(c1ccc(OCc2nc3ccccc3s2)cc1)C1CCCCC1)C(=O)O (stereo not given) | 85 | –
CCCCCCCC(O/N=C(\C)C(=O)O)c1ccc(OCc2ccc3ccccc3n2)cc1 (stereo not given) | – | inhibition [3]: 96%
C/C(=N\OC(Cc1ccc(OCc2ccc3ccccc3n2)cc1)C1CCCCC1)C(=O)O (stereo not given) | 30 | –
C/C(=N\OC(c1ccc(OCc2nc3ccccc3s2)cc1Cl)C1CCCCC1)C(=O)O (stereo not given) | – | ED50 (Rattus norvegicus [1]): 2.6 mg/kg
C/C(CCC(=O)O)=N\OC(c1ccc(OCc2ccc3ccccc3n2)cc1)C1CCCCC1 (stereo not given) | – | ED50 (Rattus norvegicus [1]): 1 mg/kg
C/C(=N\OC(c1ccc(OCc2cccc(Cl)n2)cc1)C1CCCCC1)C(=O)O (stereo not given) | – | inhibition [3]: 7%
C/C(=N\OC(c1ccc(OCc2cc(-c3ccccc3)on2)cc1)C1CCCCC1)C(=O)O (stereo not given) | 0 | inhibition [3]: 61%
C/C(=N\OC(c1ccc(OCc2ccc3ccccc3n2)cc1)C1CCCC1)C(=O)O (stereo not given) | 61 | –
C/C(=N\OC(c1ccc(OCc2ccc3ccccc3n2)c(C)c1)C1CCCCC1)C(=O)O (stereo not given) | 58 | –
O=C(O)/C=N/OC(c1ccc(OCc2nc3cc(F)ccc3s2)cc1Cl)C1CCCCC1 (stereo not given) | – | ED50 (Rattus norvegicus [1]): 1.7 mg/kg
C/C(CCCCCC(=O)O)=N\OC(c1ccc(OCc2ccc3ccccc3n2)cc1)C1CCCCC1 (stereo not given) | 5 | –
O=C(O)c1ccc(O)c(/C=N/OC(c2ccc(OCc3ccc4ccccc4n3)cc2)C2CCCCC2)c1 (stereo not given) | 35 | inhibition [3]: 95%
C/C(=N\OC(c1ccc(OCc2nc(-c3ccc(C(C)C)cc3)cs2)cc1)C1CCCCC1)C(=O)O (stereo not given) | 17 | inhibition [3]: 57%
O=C(O)/C=N/OC(c1ccc2cc(OCc3ccc4ccccc4n3)ccc2c1)C1CCCCC1 (stereo not given) | 24 | –
COc1cc(OCc2ccc3ccccc3n2)ccc1C(O/N=C(\C)C(=O)O)C1CCCCC1 (stereo not given) | 32 | inhibition [3]: 98%
O=C(O)/C=N/OC(c1nc(OCc2ccc3ccccc3n2)c(-c2ccccc2)s1)C1CCCCC1 (stereo not given) | – | inhibition [3]: 2%
O=C(O)/C=N/OC(c1ccc(-c2ccc(OCc3ccc4ccccc4n3)cc2)cc1)C1CCCCC1 (stereo not given) | 10 | inhibition [3]: 55%
O=C(O)c1ccc(/C=N/OC(c2ccc(OCc3ccc4ccccc4n3)cc2)C2CCCCC2)cc1 (stereo not given) | 41 | –
CC(C)c1ccc(-c2csc(COc3ccc(C(O/N=C/C(=O)O)C4CCCCC4)cc3)n2)cc1 (stereo not given) | 15 | –
C/C(=N\OC(c1ccc(OCc2nc(-c3ccccc3)cs2)cc1)C1CCCCC1)C(=O)O (stereo not given) | 15 | –
CCCCC(O/N=C/C(=O)O)c1ccc(OCc2ccc3ccccc3n2)cc1 (stereo not given) | 0 | –
C/C(=N\OC(c1ccc(COc2ccc3ccccc3n2)cc1)C1CCCCC1)C(=O)O (stereo not given) | 0 | –
C/C(=N\OC(c1ccc(OCc2ccc3ccccc3n2)c(Cl)c1)C1CCCCC1)C(=O)O (stereo not given) | – | ED50 (Rattus norvegicus [1]): 1.2 mg/kg
CC(C)(C)Sc1c(CC(C)(C)C(=O)[O-])n(Cc2ccc(Cl)cc2)c2ccc(OCc3ccc4ccccc4n3)cc12.[Na+] [QUIFLAPON SODIUM] | – | ED50 (Rattus norvegicus [1]): 1.6 mg/kg
C/C(=N/OC(CCc1ccc(OCc2ccc3ccccc3n2)cc1)C1CCCCC1)C(=O)O (stereo not given) | 6 | inhibition [3]: 51%
O=C(O)/C=N/OC(c1ccc(OCc2nc(-c3ccccc3)cs2)cc1)C1CCCCC1 (stereo not given) | 0 | –
